Reference: ChEMBL document CHEMBL2331232, “Α-mangostin and gambogic acid as potential inhibitors of the p53-MDM2 interaction revealed by a yeast approach” (J Nat Prod, 2013)
Activity calls are given as the source filed them. No cut-off for these calls is given here.

Experiments:
[1] = target: E3 ubiquitin-protein ligase Mdm2 (Homo sapiens) (UniProt Q00987); test: Inhibition of human MDM2 expressed in Saccharomyces cerevisiae CG379 assessed as effect on cell cycle arrest at 1 to 100 uM after 42 hrs
[2] = target: Cellular tumor antigen p53 (Homo sapiens) (UniProt P04637); test: Inhibition of human p53 expressed in Saccharomyces cerevisiae CG379 assessed as effect on cell growth at 1 to 100 uM after 42 hrs
[3] = system: Cellular tumor antigen p53 (Homo sapiens), P04637 [R280K]; test: Inhibition of human p53 R280K mutant expressed in Saccharomyces cerevisiae CG379 assessed as effect on cell growth at 10 uM after 31 hrs
[4] = target: Cellular tumor antigen p53 (Homo sapiens) (UniProt P04637); test: Inhibition of human p53 expressed in Saccharomyces cerevisiae CG379 assessed as effect on cell cycle arrest at 1 to 100 uM after 42 hrs

Cellular tumor antigen p53 (Homo sapiens), sequence (P04637 whole entry, looked up): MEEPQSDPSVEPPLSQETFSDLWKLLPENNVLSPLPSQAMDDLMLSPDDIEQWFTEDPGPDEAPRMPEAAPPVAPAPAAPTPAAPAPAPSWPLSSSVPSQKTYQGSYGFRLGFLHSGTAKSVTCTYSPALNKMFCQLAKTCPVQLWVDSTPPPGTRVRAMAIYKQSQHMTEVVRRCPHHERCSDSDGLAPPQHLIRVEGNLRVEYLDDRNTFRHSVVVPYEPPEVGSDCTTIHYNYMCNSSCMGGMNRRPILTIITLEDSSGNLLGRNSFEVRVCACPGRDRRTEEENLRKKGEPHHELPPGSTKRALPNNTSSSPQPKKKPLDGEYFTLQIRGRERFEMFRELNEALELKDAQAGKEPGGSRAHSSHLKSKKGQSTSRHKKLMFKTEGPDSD
E3 ubiquitin-protein ligase Mdm2 (Homo sapiens), sequence (Q00987 whole entry, looked up): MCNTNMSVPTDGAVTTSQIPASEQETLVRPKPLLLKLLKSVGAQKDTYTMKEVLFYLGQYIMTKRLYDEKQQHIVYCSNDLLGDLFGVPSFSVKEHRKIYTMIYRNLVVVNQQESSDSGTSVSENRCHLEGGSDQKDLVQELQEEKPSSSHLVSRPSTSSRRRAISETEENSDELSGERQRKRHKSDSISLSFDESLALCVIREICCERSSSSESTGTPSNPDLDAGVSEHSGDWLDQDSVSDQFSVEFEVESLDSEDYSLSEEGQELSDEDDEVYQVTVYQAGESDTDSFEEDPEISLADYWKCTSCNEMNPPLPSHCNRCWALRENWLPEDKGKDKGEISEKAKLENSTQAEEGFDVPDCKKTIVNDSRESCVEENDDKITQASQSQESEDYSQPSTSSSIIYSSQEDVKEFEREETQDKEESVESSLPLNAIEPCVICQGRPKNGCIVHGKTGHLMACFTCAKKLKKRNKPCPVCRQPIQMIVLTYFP

Structure (SMILES)	inhibition [1]	inhibition [2]	inhibition [3]	inhibition [4]
CC(C)=CCC[C@]1(C)C=Cc2c(O)c3c(c(CC=C(C)C)c2O1)O[C@]12C(=C[C@@H]4C[C@H]1C(C)(C)O[C@@]2(C/C=C(/C)C(=O)O)C4=O)C3=O	Active	inactive	inactive	inactive
COc1c(O)cc2oc3cc(O)c(CC=C(C)C)c(O)c3c(=O)c2c1CC=C(C)C	inactive	inactive	inactive	inactive
